Measured values: patent publication US9833495B2, “Oral treatment of inflammatory bowel disease” (Defensin Therapeutics ApS, priority 2011, dated 2017)

System: DSS-induced colitis in male C57BL/6 mice
Assay: 10-Day Dextran Sodium Sulphate (DSS)-induced colitis model in the mouse
Type: in vivo
Settings: for additional DAI score without change in body weight (only stool consistency and rectal bleeding): oral, 10-day treatment
Description: 10-Day Dextran Sodium Sulphate (DSS)-Induced Colitis Model in the Mouse
The aim of the following study was to determine the anti-inflammatory activity of human beta defensin 2 in an acute (10-days) model of inflammatory bowel disease (colitis) induced by oral dextran sodium sulphate (DSS) administration in the mouse.
Study design: animals were divided into 5 experimental groups. Each group consisted of 10 males: Group A: Treated with Control vehicle (PBS) p.o. twice daily. Group B: Treated with methylprednisolone (1 mg/kg p.o. twice daily). Group C: Treated with hBD2 (0.05 mg/kg p.o. twice daily). Group D: Treated with hBD2 (0.5 mg/kg p.o. daily). Group E: Treated with hBD2 (5 mg/kg p.o. […]). Animal allocation to all experimental groups was done in a randomized manner. A maximum of 5 mice were housed in each cage (as per Directive 86/609/EEC). All animals were weighed on their arrival at the laboratory and prior to the administration of the test items.
The control vehicle and hBD2 were administered orally with the use of a sterile cannula in a dosing volume of 10 ml/kg body weith. The animals of all groups received 2 doses daily (at 9.00 h and 17.00 h) of the corresponding test item (test, reference or vehicle) for 10 consecutive days (experimental days 1-10).
Colitis was induced in mice by supplementing their drinking water with DSS 2% for 7 days. On Day 1 all mice were weighed and marked according to their experimental groups. The drinking bottle of each cage was filled with the DSS solution, making sure all bottle lids were mounted properly and that none were congested. On Day 3 any remaining solution in the bottles was emptied and refilled with fresh DSS solution. This procedure was repeated again on Day 5. On Day 8 any remaining solution was discarded and replaced with autoclaved water. Animals were sacrificed 2 days later on Day 10.
Daily clinical assessment of DSS-treated animals was carried out, with the calculation of a validated clinical Disease Activity Index (DAI) ranging from 0 to 4 according to the following parameters: stool consistency, presence or absence of rectal bleeding and weight loss:
Bodyweight loss was calculated as the percent difference between the original bodyweight (Day 1) and the actual bodyweight on each experimental day (2-10). The appearance of diarrhoea is defined as mucus/faecal material adherent to anal fur. Rectal bleeding is defined as diarrhoea containing visible blood/mucus or gross rectal bleeding. The maximum score of the DAI each day is 12.
On day 10, two hours after the last administration of control vehicle, hBD2 or prednisolone, the animals were killed by an overdose of anaesthetic. Their colons were removed and their length and weight measured after exclusion of the caecum. Two sections (proximal and distal) of colon were taken from each animal and preserved in neutral buffered formalin for subsequent histological analysis (haematoxylin and eosin staining) according to the following scoring system:
Description Score: No changes observed (0). Minimal scattered mucosal inflammatory cell infiltrates, with or without minimal epithelial hyperplasia (1). Mild scattered to diffuse inflammatory cell infiltrates, sometimes extending into the submucosa and associated with erosions, with minimal to mild epithelial hyperplasia and minimal to mild mucin depletion from goblet cells (2). Mild to moderate inflammatory cell infiltrates that were sometimes transmural, often associated with ulceration, with moderate epithelial hyperplasia and mucin depletion (3). Marked inflammatory cell infiltrates that were often transmural and associated with ulceration, with marked epithelial hyperplasia and mucin depletion (4). Marked transmural inflammation with severe ulceration and loss of intestinal glands (5). […]

[1] = 1 mg/kg p.o. twice daily (Group B), day 10

| Compound | histological injury induced by DSS in the distal colon [1] | histological injury induced by DSS in the proximal colon [1] | body weight (group B, from day 2 until the end of the study) | additional DAI score without change in body weight (only stool consistency and rectal bleeding) | effect on disease activity index (DAI) vs vehicle (reference item, 1 mg/kg p.o. twice daily) | severity of disease parameters (10-Day DSS-induced colitis model in the mouse) | Disease Activity Index (DAI) (hBD2 0.05 mg/kg p.o., Day 10, mean ± SEM, n=10, P < 0.05 vs vehicle) | body weight vs control group (high dose of test item, day 10 (P<0.05)) | histological damage score of proximal and distal colons (orally administered, day 10) | effect on disease activity index (DAI) vs vehicle (three dose levels (0.05, 0.5, 5 mg/kg) via the oral route) | histological damage in the proximal colon (twice daily, at 3 dose levels, p.o., day 10) | histological damage in the distal colon (twice daily, intermediate and high dose levels, p.o., day 10) |
| --- | --- | --- | --- | --- | --- | --- | --- | --- | --- | --- | --- | --- |
| C[C@H]1C[C@@H]2[C@H]([C@@H](O)C[C@@]3(C)[C@H]2CC[C@]3(O)C(=O)COC(=O)CCC(=O)O)[C@@]2(C)C=CC(=O)C=C12 [Methylprednisolone 21-hemisuccinate, reference compound] | significantly reduced | significantly reduced | significant decrease | very significant anti-inflammatory activity | significant inhibition | – | – | – | – | – | – | – |
| Human beta defensin 2 (GIGDPVTCLKSGAICHPVFCPRRYKQIGTCGLPGTKCCKKP; mat_peptide; listed as Homo sapiens) [NZ39000] | – | – | – | very significant anti-inflammatory activity | – | significantly reduce | 8 ± 0.73 | significant increase | very significant reduction | significant inhibition | significant reduction | significant reduction |
